In series [1] the test system is Mus musculus. As to the kind of experiment: Antidiabetic activity against C57BL/6J mouse assessed as reduction serum glucose AUC levels at 20 mg/kg, po measured up to 240 mins by IPGTT method. In kind it is functional, organism-based. Set-up: dose 20 mg/kg.
Series [2] relates to Mus musculus. As to the kind of experiment: Antidiabetic activity against C57BL/6J mouse assessed as reduction serum glucose AUC levels at 20 mg/kg, po measured up to 120 mins by IPGTT method. In kind it is functional, organism-based. Details: dose 20 mg/kg.
For series [3], the system named is Mus musculus. As to the kind of experiment: Antidiabetic activity against C57BL/6J mouse assessed as reduction serum glucose AUC levels at 20 mg/kg, po measured up to 60 mins by IPGTT method. In kind it is functional, organism-based. Details: dose 20 mg/kg.
Series [4] is described as follows: Cmax in C57BL/6J mouse at 20 mg/kg, po administered as single dose. In kind it is ADME, organism-based. Set-up: dose 20 mg/kg, route oral. To be noted: in vivo.
Series [5] is described as follows: AUC (0 to alpha) in C57BL/6J mouse at 20 mg/kg, po administered as single dose. It counts as ADME, organism-based. Particulars: plasma. Set-up: dose 20 mg/kg, route oral.
A short description of series [6]: Tmax in C57BL/6J mouse at 20 mg/kg, po administered as single dose. In kind it is ADME, organism-based. Set-up: dose 20 mg/kg, route oral. Particulars: in vivo.
The test system of series [7] is Mus musculus. As to the kind of experiment: Antidiabetic activity against C57BL/6J mouse assessed as reduction serum glucose AUC levels at 20 mg/kg, po measured up to 30 mins by IPGTT method. Set-up: dose 20 mg/kg. It counts as functional, organism-based.
Series [8] can be described thus: Oral bioavailability in C57BL/6J mouse at 20 mg/kg administered as single dose. In kind it is ADME, organism-based. To be noted: in vivo.
Series [9] in a line: Half life in C57BL/6J mouse at 20 mg/kg, po administered as single dose. In kind it is ADME, organism-based. Set-up: dose 20 mg/kg, route oral. To be noted: in vivo.
Series [10] is described as follows: Elimination rate constant in C57BL/6J mouse at 20 mg/kg administered as single dose. It counts as ADME, organism-based. Set-up: dose 20 mg/kg. Particulars: in vivo.

The text below walks through data of ChEMBL document CHEMBL2086250, “Long-acting peptidomimetics based DPP-IV inhibitors” (Bioorg Med Chem Lett, 2012).

For orientation: Cmax means the highest concentration seen after dosing. For orientation: AUC means concentration integrated over time. Low readings indicate low exposure, high ones high exposure. As a reminder, the Tmax is the time from dosing to the highest level. As usually defined, the bioavailability is dose-corrected exposure relative to a reference, in per cent. The low end stands for poor availability, the high end for good availability. The half-life is how long it takes for the measured level to halve.

Calls of active or inactive are those of the source. No cut-off for these calls is given here.

With `N#Cc1ccc(NCCNCC(=O)N2CCC[C@H]2C#N)nc1`, the outcome with Mus musculus [1] and in the series with Mus musculus [2] was inactive. Besides, the result with Mus musculus [3] and in the series on Mus musculus [7] was Active. In series [4], this compound had a Cmax of 6200 ng/mL. In addition, in series [5], the exposure (AUC) was found to be 6490 ng·h/mL. Besides, the Tmax in [6] was 19.2 min. For the same compound, the bioavailability in series [8] came out at 65%. The same compound showed a half-life in series [9] of 52.8 min.
As to `N#C[C@@H]1CCCN1C(=O)CCCNC(=O)c1ccc(C(F)(F)F)cc1`, the outcome in the series with Mus musculus [1] and with Mus musculus [2] was inactive. For the same compound, the outcome in the series with Mus musculus [3] and with Mus musculus [7] was Active. The same compound displayed a Cmax in series [4] of 5900 ng/mL. In [10], this compound had a k el of 0.000228 s⁻¹. The compound further showed an exposure (AUC) in series [5] of 6890 ng·h/mL. Besides, in series [6], the Tmax stood at 16.8 min. This compound returned a bioavailability in series [8] of 63.1%. This compound had a half-life in series [9] of 59.4 min.
With `N#Cc1ccc(C(=O)NCCCC(=O)N2CCC[C@H]2C#N)cc1`, the result with Mus musculus [1], with Mus musculus [2], in the series with Mus musculus [3] and with Mus musculus [7] was Active. In [4], the Cmax was found to be 7100 ng/mL. In addition, the k el in series [10] was 3.06e-05 s⁻¹. This compound showed an AUC in series [5] of 14300 ng·h/mL. Further, the Tmax in [6] worked out at 17.4 min. In series [8], the bioavailability stood at 72.5%. The compound further gave a half-life in [9] of 479 min.
